Data set [1] deals with Trypanosoma brucei rhodesiense. The data set can be described thus: Antitrypanosomal activity against bloodstream forms of Trypanosoma brucei rhodesiense STIB900. It is filed as functional, organism-based.
Another data set concerns Trypanosoma cruzi. The data set can be described thus: Antitrypanosomal activity against trypomastigote forms of Trypanosoma cruzi Tulahuen C4. The data set is classed as functional, organism-based.
In a further data set the test system is Saccharomyces cerevisiae. The data set can be described thus: […] activity against Saccharomyces cerevisiae by agar diffusion assay. It is filed as functional, organism-based. On the technique in general: Agar diffusion results depend on both activity and mobility in agar.
The subject of the next data set is L6. The data set can be described thus: Cytotoxicity against rat L6 cells. It is filed as cell-based.
For a further data set, the system named is Micrococcus luteus. Briefly: Antibacterial activity against Micrococcus luteus by agar diffusion assay. It is filed as functional, organism-based.
For another data set, the system named is Bacillus subtilis. The data set can be described thus: Antibacterial activity against Bacillus subtilis by agar diffusion assay. The data set is classed as functional, organism-based.
A further data set has as its system Plasmodium falciparum. The data set can be described thus: Antiplasmodial activity against erythrocytic stages of Plasmodium falciparum NF54. The data set is classed as functional, organism-based.
The test system of a further data set is Escherichia coli. Briefly: Antibacterial activity against Escherichia coli DH10B by agar diffusion assay. As to conditions: K-12 substr. DH10B. It is filed as functional.
Data set [2] can be described thus: Selectivity index, ratio of IC50 for rat L6 cells to IC50 for erythrocytic stages of Plasmodium falciparum NF54. It is filed as toxicity, cell-based. The note with it: read-out: Ratio IC50.

Activity calls are given as the source filed them. The calls are words filed in the database; no cut-off is given here.

For orientation: IC50 means the concentration needed to halve the response being measured. A lower IC50 goes with greater potency. As to `CCC(=O)N[C@@H]1C(=O)N[C@H](Cc2ccccc2)C(=O)N[C@H](C)C(=O)N2CCC[C@H]2C(=O)N[C@@H](Cc2c[nH]c3ccccc23)C(=O)O[C@@H]1C`, the half-maximal inhibitory concentration (IC50) in data set [1] was 77.6 µM; with Trypanosoma cruzi it was 98.9 µM; with L6 it was over 151 µM; in the data set on Plasmodium falciparum, 15.4 µM. Further, the result with Saccharomyces cerevisiae, with Micrococcus luteus, with Bacillus subtilis and in the data set on Escherichia coli was inactive.

For `C[C@H]1NC(=O)[C@@H](Cc2ccccc2)NC(=O)[C@@H](NC(=O)Cc2ccccc2)[C@@H](C)OC(=O)[C@H](Cc2c[nH]c3ccccc23)NC(=O)[C@@H]2CCCN2C1=O`, the IC50 in data set [1] is 5.11 µM; in the data set on Trypanosoma cruzi, 56.4 µM; in the data set on L6, 92.2 µM; in the data set with Plasmodium falciparum, 0.61 µM. Also, in data set [2], the selectivity ratio was over 151. The outcome in the data set on Saccharomyces cerevisiae, with Micrococcus luteus, with Bacillus subtilis and in the data set with Escherichia coli was inactive.

In turn, `O=C(Cn1ccnc1[N+](=O)[O-])NCc1ccccc1` [BENZNIDAZOLE] had an IC50 with Trypanosoma cruzi of 1.73 µM.
